Values of other authors as cited in US20120183988A1, “INTEIN-BASED F[…]-CIRCUIT FOR VITAMIN D DETECTION” (priority 2009, published 2012).

Conditions: cited from reference 2 (Haddad and Stamp 1974)

## C=C1CC[C@H](O)C/C1=C/C=C1\CCC[C@]2(C)[C@@H]([C@H](C)CCCC(C)(C)O)CC[C@@H]12 [25(OH)D3, 25-hydroxyvitamin D3]
  serum half-life: ca. 3 weeks
